Experiments:
[1] = tested on: VSV-Ova specific TRM; parameters: species or system mice; conditions: mouse, in vivo
[2] = tested on: virus-specific TRM within skin tumors; parameters: species or system mice; conditions: mouse, in vivo

## SIINFEKL
[1]
  reactivation of virus-specific TRM within skin tumors: can become reactivated
[2]
  recruitment of CD8 T cells and NK cells to tumors: recruit CD8 T cells and NK cells to the tumors

From patent US20260144820A1, “ACTIVATION OF RESIDENT MEMORY T CELLS FOR CANCER IMMUNOTHERAPY” (priority 2015, published 2026)
